Results reported in PMC6407917, “Identification of GSK3186899/DDD853651 as a Preclinical Development Candidate for the Treatment of Visceral Leishmaniasis” (Journal of Medicinal Chemistry, 2018).

Columns and labels:
Assay in all cases: biochemical
Design in all cases: species or system HEK293/K-562/placenta mixed human extract; Kinobeads chemoproteomic competition binding, quantified by TMT LC-MS/MS, dose response up to 20 uM
JAK2 = JAK2 (Homo sapiens, UniProt O60674)
ADCK1 = ADCK1 (Homo sapiens, UniProt Q86TW2)
MAP2K5 = MAP2K5 (Homo sapiens, UniProt Q13163)
PKN3 = PKN3 (Homo sapiens, UniProt Q6P5Z2)
BUB1 = BUB1 (Homo sapiens, UniProt O43683)
FGFR1 = FGFR1 (Homo sapiens, UniProt P11362)
EPHB1 = EPHB1 (Homo sapiens, UniProt P54762)
EIF2AK4 = EIF2AK4 (Homo sapiens, UniProt Q9P2K8)
IKBKE = IKBKE (Homo sapiens, UniProt Q14164)
WNK4 = WNK4 (Homo sapiens, UniProt Q96J92)
PRKG1 = PRKG1 (Homo sapiens, UniProt Q13976)
CLK1 = CLK1 (Homo sapiens, UniProt P49759)
PHKA2 = PHKA2 (Homo sapiens, UniProt P46019)
MAPK7 = MAPK7 (Homo sapiens, UniProt Q13164)
PIM2 = PIM2 (Homo sapiens, UniProt Q9P1W9)
MAP3K4 = MAP3K4 (Homo sapiens, UniProt Q9Y6R4)
STK17A = STK17A (Homo sapiens, UniProt Q9UEE5)
PKN2 = PKN2 (Homo sapiens, UniProt Q16513)
PKMYT1 = PKMYT1 (Homo sapiens, UniProt Q99640)
EPHB4 = EPHB4 (Homo sapiens, UniProt P54760)
CAMK2B = CAMK2B (Homo sapiens, UniProt Q13554)
Sequence of CAMK2B (Q13554 whole entry): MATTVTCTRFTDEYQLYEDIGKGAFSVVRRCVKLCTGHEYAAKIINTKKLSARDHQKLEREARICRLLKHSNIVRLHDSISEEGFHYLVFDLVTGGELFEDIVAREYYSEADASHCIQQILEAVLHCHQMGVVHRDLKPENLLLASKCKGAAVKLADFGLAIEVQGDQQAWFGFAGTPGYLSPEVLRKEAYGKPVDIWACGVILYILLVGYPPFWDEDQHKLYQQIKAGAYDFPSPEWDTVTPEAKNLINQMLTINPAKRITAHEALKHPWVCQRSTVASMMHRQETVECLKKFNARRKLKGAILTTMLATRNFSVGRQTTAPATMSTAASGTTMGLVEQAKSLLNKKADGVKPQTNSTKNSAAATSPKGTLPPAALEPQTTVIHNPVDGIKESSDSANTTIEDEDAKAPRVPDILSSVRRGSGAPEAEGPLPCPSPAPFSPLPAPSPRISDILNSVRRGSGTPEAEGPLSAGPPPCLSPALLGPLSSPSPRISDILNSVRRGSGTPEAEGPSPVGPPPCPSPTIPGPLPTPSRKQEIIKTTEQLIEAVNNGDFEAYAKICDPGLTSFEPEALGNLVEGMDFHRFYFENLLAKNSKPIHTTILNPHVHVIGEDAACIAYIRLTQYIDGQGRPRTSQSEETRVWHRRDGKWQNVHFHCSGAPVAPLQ

Sequence of PKN3 (Q6P5Z2 whole entry): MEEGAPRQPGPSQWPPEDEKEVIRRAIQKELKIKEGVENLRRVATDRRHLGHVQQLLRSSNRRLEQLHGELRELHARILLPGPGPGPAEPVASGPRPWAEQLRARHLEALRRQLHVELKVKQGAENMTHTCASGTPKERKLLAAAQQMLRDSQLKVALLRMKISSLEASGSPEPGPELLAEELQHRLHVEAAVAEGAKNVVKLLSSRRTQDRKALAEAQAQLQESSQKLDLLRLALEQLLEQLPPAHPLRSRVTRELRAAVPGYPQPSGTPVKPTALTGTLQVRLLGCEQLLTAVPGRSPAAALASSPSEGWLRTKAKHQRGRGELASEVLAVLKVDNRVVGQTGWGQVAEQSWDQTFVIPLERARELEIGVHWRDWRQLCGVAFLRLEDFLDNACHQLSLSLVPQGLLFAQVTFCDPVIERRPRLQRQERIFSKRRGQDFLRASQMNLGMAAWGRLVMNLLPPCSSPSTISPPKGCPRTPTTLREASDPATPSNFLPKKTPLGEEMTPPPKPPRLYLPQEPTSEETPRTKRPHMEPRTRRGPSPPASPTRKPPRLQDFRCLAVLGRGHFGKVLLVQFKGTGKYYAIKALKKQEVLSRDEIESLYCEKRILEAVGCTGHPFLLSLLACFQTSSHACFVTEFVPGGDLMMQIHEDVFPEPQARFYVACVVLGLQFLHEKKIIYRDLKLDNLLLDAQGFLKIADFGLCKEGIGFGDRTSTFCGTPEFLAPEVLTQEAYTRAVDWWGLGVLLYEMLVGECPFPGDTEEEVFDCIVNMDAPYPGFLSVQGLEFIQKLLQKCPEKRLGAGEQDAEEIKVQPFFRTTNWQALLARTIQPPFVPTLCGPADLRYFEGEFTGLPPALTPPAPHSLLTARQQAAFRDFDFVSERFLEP
Sequence of PKN2 (Q16513 whole entry): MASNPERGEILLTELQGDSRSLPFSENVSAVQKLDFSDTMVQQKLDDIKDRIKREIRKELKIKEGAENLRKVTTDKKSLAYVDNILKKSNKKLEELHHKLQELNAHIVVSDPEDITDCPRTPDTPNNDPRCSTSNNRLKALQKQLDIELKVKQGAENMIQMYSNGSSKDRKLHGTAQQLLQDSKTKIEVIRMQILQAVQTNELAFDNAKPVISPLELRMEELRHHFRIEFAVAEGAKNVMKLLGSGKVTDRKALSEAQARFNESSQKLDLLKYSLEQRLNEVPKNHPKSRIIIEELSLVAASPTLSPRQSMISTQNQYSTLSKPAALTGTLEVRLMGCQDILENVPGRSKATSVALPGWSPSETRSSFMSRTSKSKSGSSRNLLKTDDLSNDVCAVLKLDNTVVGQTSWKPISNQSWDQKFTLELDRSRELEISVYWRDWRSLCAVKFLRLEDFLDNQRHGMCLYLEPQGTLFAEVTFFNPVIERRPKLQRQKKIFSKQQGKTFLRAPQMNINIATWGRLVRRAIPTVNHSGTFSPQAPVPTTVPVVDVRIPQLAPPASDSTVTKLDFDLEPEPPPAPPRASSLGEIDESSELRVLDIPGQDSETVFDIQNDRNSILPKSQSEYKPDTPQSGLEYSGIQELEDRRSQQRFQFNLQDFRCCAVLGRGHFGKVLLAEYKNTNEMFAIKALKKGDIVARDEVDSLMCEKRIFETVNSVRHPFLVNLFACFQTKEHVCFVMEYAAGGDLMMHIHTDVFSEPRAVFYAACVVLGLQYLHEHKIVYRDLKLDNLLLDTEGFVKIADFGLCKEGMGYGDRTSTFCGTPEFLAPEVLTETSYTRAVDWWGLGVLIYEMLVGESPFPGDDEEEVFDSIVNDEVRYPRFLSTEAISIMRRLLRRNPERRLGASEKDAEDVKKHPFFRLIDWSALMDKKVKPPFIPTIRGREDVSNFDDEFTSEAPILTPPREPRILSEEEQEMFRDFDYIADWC
Sequence of WNK4 (Q96J92 whole entry): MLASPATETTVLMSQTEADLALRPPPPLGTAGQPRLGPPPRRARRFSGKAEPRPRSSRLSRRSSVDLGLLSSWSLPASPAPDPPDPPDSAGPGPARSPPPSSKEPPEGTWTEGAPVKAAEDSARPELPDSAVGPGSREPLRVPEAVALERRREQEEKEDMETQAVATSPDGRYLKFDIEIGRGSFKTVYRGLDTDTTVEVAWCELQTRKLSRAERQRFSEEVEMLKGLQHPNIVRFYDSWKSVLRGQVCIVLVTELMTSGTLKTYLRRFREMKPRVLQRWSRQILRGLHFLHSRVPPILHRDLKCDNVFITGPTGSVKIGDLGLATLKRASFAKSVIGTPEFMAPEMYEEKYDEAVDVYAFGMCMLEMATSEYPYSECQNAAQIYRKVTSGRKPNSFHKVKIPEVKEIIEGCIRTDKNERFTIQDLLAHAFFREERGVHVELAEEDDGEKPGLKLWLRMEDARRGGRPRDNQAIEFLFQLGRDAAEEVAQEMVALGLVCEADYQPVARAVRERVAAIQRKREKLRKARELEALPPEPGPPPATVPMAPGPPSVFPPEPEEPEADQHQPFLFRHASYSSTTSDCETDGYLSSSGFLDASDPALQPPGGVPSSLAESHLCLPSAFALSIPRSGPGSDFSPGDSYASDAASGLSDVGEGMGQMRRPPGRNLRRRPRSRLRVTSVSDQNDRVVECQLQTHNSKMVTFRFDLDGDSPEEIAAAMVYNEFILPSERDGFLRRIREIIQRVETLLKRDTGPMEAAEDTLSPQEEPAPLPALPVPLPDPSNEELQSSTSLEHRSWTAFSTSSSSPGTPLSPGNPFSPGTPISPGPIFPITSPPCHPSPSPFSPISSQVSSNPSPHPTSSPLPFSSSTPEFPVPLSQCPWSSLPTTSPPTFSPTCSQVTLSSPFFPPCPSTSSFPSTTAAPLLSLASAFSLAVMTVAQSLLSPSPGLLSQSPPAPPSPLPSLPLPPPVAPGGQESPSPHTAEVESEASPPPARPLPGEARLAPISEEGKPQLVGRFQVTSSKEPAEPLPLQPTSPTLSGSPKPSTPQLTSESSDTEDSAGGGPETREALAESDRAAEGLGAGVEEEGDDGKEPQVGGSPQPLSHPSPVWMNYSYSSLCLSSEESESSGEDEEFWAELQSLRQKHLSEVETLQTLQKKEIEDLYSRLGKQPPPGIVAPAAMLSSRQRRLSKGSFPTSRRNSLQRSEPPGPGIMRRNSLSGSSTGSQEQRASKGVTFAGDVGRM
Sequence of PRKG1 (Q13976 whole entry): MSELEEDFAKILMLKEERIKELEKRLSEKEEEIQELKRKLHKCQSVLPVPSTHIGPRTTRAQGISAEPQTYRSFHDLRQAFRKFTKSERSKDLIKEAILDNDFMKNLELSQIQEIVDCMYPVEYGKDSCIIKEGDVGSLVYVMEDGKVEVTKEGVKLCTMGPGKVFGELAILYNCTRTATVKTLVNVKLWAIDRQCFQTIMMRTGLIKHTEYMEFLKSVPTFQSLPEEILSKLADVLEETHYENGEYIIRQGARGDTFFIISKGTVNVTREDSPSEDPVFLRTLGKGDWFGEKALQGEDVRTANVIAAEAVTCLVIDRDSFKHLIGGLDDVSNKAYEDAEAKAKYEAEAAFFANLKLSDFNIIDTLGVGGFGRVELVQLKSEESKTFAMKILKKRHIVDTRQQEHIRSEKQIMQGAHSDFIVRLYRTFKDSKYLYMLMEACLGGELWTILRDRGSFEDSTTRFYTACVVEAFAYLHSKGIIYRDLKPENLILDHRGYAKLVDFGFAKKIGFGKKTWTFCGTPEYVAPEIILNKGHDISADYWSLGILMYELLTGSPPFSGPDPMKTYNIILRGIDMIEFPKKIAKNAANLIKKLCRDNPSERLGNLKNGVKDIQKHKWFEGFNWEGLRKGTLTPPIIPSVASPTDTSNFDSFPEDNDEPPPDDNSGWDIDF
Sequence of PKMYT1 (Q99640 whole entry): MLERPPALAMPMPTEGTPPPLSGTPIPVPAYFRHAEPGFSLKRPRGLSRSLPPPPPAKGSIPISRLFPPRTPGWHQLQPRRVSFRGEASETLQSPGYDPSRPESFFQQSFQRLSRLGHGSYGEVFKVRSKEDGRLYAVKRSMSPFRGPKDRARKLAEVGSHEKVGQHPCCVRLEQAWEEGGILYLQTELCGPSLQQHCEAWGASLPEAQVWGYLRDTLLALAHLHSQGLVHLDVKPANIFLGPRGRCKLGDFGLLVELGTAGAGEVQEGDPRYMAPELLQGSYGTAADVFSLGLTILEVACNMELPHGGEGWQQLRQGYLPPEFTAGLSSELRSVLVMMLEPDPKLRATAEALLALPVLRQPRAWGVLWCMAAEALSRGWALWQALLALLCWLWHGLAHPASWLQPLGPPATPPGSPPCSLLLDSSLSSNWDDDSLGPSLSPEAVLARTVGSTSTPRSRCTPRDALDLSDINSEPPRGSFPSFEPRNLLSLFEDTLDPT

- IC50 (JAK2): ≥ 20 µM
- IC50 (ADCK1): ≥ 20 µM
- IC50 (MAP2K5): ≥ 20 µM
- IC50 (PKN3): ≥ 20 µM
- IC50 (BUB1): ≥ 20 µM
- IC50 (FGFR1): ≥ 20 µM
- IC50 (EPHB1): ≥ 20 µM
- IC50 (EIF2AK4): ≥ 20 µM
- IC50 (IKBKE): ≥ 20 µM
- IC50 (WNK4): ≥ 20 µM
- IC50 (PRKG1): ≥ 20 µM
- IC50 (CLK1): ≥ 20 µM
- IC50 (PHKA2): ≥ 20 µM
- IC50 (MAPK7): ≥ 20 µM
- IC50 (PIM2): ≥ 20 µM
- IC50 (MAP3K4): ≥ 20 µM
- IC50 (STK17A): ≥ 20 µM
- IC50 (PKN2): ≥ 20 µM
- IC50 (PKMYT1): ≥ 20 µM
- IC50 (EPHB4): ≥ 20 µM
- IC50 (CAMK2B): ≥ 20 µM
SMILES: COc1ccccc1-c1n[nH]c2nc(N[C@H]3CC[C@H](NS(=O)(=O)CCC(F)(F)F)CC3)nc(OC)c12 [compound 31, 3,3,3-Trifluoro-N-(trans-4-((4-methoxy-3-(2-methoxyphenyl)-1H-pyrazolo[3,4-d]pyrimidin-6-yl)amino)cyclohexyl)propane-1-sulfonamide]
